Data from patent US9918972B2, “Treatment of leukemia with artemisinin derivatives and combinations with other antineoplastic agents” (UNIVERSITY OF MARYLAND, BALTIMORE, priority 2014, dated 2018).
Values joined by “and” are separate entries in the source; they are usually repeats but may differ in a detail not shown here. Identical values can stand only once. “Also recorded” adds a separate entry of the source. Counter-ions that a name gives are not always drawn. Marks after values point to notes of the source that are not given here. Values belong to the compound of their own block, whether it stands above or below them.

Columns and labels:
[1] = test system: MOLM14 cells; assay: Preliminary cytotoxicity of ROS/iron inhibitors (Trypan Blue dye exclusion assays); type: cell-based, human; details: read-out: approximate 48-hour IC50
[2] = test system: MOLM14 cells; assay: alamarBlue cytotoxicity assay, single-drug IC50, 48 h; type: cell-based, human
Method: Peripheral wells were filled with sterile water to minimize the effects of evaporation. […] Results were normalized to cells treated with vehicle (≦0.5% DMSO) alone. IC50s were calculated using CompuSyn software and represent the means of at least three experiments performed in triplicate.

[3] = test system: KOPN8 cells; assay: as above; type: cell-based; details: Homo sapiens, KOPN-8
Method: Cytotoxicity was assessed using alamarBlue assays (Life Technologies, Grand Island, N.Y.; used for IC50 determinations and all drug combinations except the drug combination screen (method described separately below)) or Trypan Blue dye exclusion (Life Technologies, Grand Island, N.Y.; used only for experiments using inhibitors that could interfere with alamarBlue assay performance (NAC, Tiron, DFO)).
Cell lines were seeded in 96-well tissue culture plates at 10^4 cells per well (myeloid leukemia lines) or 2×10^4 cells per well (lymphoid leukemia lines) in culture medium, followed by addition of drugs at the indicated concentrations. 2-4 wells per plate containing media-only were included for background subtraction. Peripheral wells were filled with sterile water to minimize the effects of evaporation.
MOLM14 cells were treated with each of these drugs, alone and in combination with ART-838 or AS at an equipotency ratio based on the IC50s for each drug (Table 1). In Table 1, KOPN8 and MOLM14 cell lines were treated with a range of concentrations of each drug for 48 h then cytotoxicity was measured via alamarBlue assay. Results were normalized to cells treated with vehicle (≦0.5% DMSO) alone. IC50s were calculated using CompuSyn software and represent the means of at least three experiments performed in triplicate. Addition of ART-838 or AS enhanced the cytotoxicity of all six tested drugs across a range of concentrations (FIG. 2). Drug interactions were typically most favorable (more additive/synergistic or less antagonistic) at higher doses.

[4] = test system: MOLM14 cells; assay: ROS - mitochondrial superoxide (MitoSOX flow cytometry); type: cell-based, human; details: for effect on ART-838-induced superoxide generation: MOLM14, combined with ART-838, 2.25x IC50s; for effect on ART-838-induced superoxide generation / effect on AS-induced superoxide generation: 16 h; for effect on AS-induced superoxide generation: MOLM14, combined with AS, 2.25x IC50s
Method: FIGS. 4A-4D. […] CIs were computed as described above. CI<1 indicates synergy, CI=1, additivity, CI>1, antagonism. […] Cells were then loaded with 5 μM MitoSox for 30 min, washed, and analyzed by flow cytometry for MitoSox fluorescence (indicating mitochondrial superoxide) in the FL2 channel. […] Error bars represent the SEM of three independent experiments.

[5] = test system: MOLM14; assay: Kinase inhibitor drug combination screen (MTS, Bliss-independence analysis)
[6] = test system: RCH-ACV; assay: as above
[7] = test system: MOLM14, Kasumi-1, KOPN8 and RCH-ACV leukemia cell lines; assay: Kinase inhibitor drug combination screen, summary over the four leukemia cell lines; details: cell lines synergistically inhibited (>10% over Bliss) by drug 1 combined with AS and/or ART-838
[8] = test system: KOPN8; assay: Kinase inhibitor drug combination screen (MTS, Bliss-independence analysis)
[9] = test system: MOLM14 cells; assay: Drug combination analysis (Chou and Talalay), simultaneous 48 h treatment, alamarBlue; type: cell-based, human; details: MOLM14, combined with AS, 2.25x single-drug IC50s
Method: FIGS. 2A-2B. ART-838 or AS enhanced the cytotoxicity of all six antileukemic drugs tested in MOLM14. […] Each experiment was performed three times in triplicate, and error bars represent the SEM. All panels have error bars but some are too small to be visible. Combination indices (CI) were computed for each drug combination using CompuSyn software, based on the Median Effect Principle and the CI theorem of Chou-Talalay, wherein CI=1 indicates additivity, CI<1 synergism, and CI>1 antagonism.
FIGS. 4A-4D. Effects of ART-838- and AS-containing drug combinations on MOLM14 growth and superoxide generation. […]. CIs were computed as described above. CI<1 indicates synergy, CI=1, additivity, CI>1, antagonism. […] Cells were then loaded with 5 μM MitoSox for 30 min, washed, and analyzed by flow cytometry for MitoSox fluorescence (indicating mitochondrial superoxide) in the FL2 channel. Mean fluorescence intensity (MFI) was normalized to that of vehicle control (0.5% DMSO) with no pretreatment (100%, lower dotted lines). Upper dotted lines show MFI of ART-838- or AS-treated cells. Error bars represent the SEM of three independent experiments.
For each two-drug pair, dose-response curves were generated for each drug individually and for the two drugs combined. […]. […]

[10] = test system: MOLM14-luc AML xenografts; assay: Subcutaneous MOLM14-luc xenograft growth in NSG mice (ARA with ART-838); type: in vivo; details: ARA 40 mg/kg/d i.p. plus ART-838 200 mg/kg/d p.o.
Method: FIG. 14. ART-838 enhanced in vivo efficacy of ARA against acute leukemia xenografts in NSG mice. NSG mice transplanted subcutaneously with luciferase labeled MOLM14 (MOLM14-luc) AML cells, were treated with vehicle, ARA (“Ara-C”), ART-838 or ART-838 plus ARA starting on day 17 after transplantation. Ara-C (40 mg/kg/d) was given i.p. on day 17, 18, 19, 20, 21 and 24. ART-838 (200 mg/kg/d) was given p.o. on day 17, 20 and 24. Mouse tumors were measured on the indicated days.
Highly immunodeficient NSG mice, obtained originally from Jackson Laboratory (Bar Harbor, Me.), were bred and housed in the UMSOM animal facilities, and handled in a laminar flow hood under aseptic conditions. All experiment procedures and animal care were in compliance with the NIH guidelines for the Care and Use of Laboratory Animals and approved by the UMSOM Institutional Animal Care and Use Committee. ART-838 were formulated in Tween 80:ethanol (7:3, v:v) and diluted 1:10 in filtered deionized water immediately before administration. […] Mice were monitored daily and euthanized when tumors reached an estimated mass of 2000 mg (using the formula: [length×width2]/2, assuming density=1 mg/mm3).
The anti-leukemic efficacy of ART-838 plus ARA was tested in NSG mice transplanted subcutaneously with luciferase labeled MOLM14 (MOLM14-luc) AML cells. […] Mouse tumors were measured with calipers on the indicated days.

[11] = Homo sapiens, MOLM-14, MOLM14, single drug, 48 h, alamarBlue
[12] = MOLM14, Drug 2 = ART-838 at approximate IC50, 48 h
[13] = Drug 2 = AS at approximate IC50, 48 h
[14] = KOPN8, Drug 2 = ART-838 at approximate IC50, 48 h
[15] = Drug 2 = ART-838 at approximate IC50, 48 h
[16] = MOLM14, Drug 2 = AS at approximate IC50, 48 h
[17] = KOPN8, Drug 2 = AS at approximate IC50, 48 h

Compound: O=S(=O)(O)c1cc(O)c(O)c(S(=O)(=O)O)c1 [Tiron]
IC50 ([1]; Homo sapiens, MOLM-14, 48 h, MOLM14, preliminary experiments): ~1000 µM

Compound: COc1cccc2c1C(=O)c1c(O)c3c(c(O)c1C2=O)C[C@@](O)(C(=O)CO)C[C@@H]3O[C@H]1C[C@H](N)[C@H](O)[C@H](C)O1 [DOX, doxorubicin]
IC50 [2, 11]: 0.079 µM
IC50 [3]: 0.03 µM
effect on ART-838-induced superoxide generation [4]: further enhanced
effect on AS-induced superoxide generation [4]: further enhanced

Compound: Oc1nc(-c2ccc(C(F)(F)F)cc2)nc2c1CSCC2 [XAV-939]
fractional inhibition over Bliss prediction [5, 12]: MOLM14 (0.17),
fractional inhibition over Bliss prediction [6, 13]: RCH-ACV (0.22)
No. Cell Lines [7]: 3/4
fractional inhibition over Bliss prediction [8, 14]: KOPN8 (0.18)

Compound: COc1cc([C@@H]2c3cc4c(cc3[C@@H](O[C@@H]3O[C@@H]5CO[C@@H](C)O[C@H]5[C@H](O)[C@H]3O)[C@H]3COC(=O)[C@H]23)OCO4)cc(OC)c1O [ETO, etoposide]
IC50 [3]: 0.15 µM
effect on ART-838-induced superoxide generation [4]: further enhanced
effect on AS-induced superoxide generation [4]: further enhanced

Compound: C[C@@H](Oc1cc(-c2cnn(C3CCNCC3)c2)cnc1N)c1c(Cl)ccc(F)c1Cl [Crizotinib]
fractional inhibition over Bliss prediction [6, 13]: RCH-ACV (0.13)
No. Cell Lines [7]: 2/4**
fractional inhibition over Bliss prediction [8, 14]: KOPN8 (0.12)

Compound: C[C@@H]1CCC2[C@@H](C)[C@@H](CC(COP(=O)(Oc3ccccc3)Oc3ccccc3)C[C@H]3O[C@@H]4O[C@@]5(C)CCC6[C@H](C)CCC([C@H]3C)[C@]64OO5)O[C@@H]3O[C@@]4(C)CCC1[C@@]23OO4 (some centres unmarked) [ART-838, artemisinin-derived trioxane diphenylphosphate dimer 838]
IC50 ([2]; MOLM14 (AML) cell line): 0.025 µM
mitochondrial superoxide (MitoSox MFI) ([4]; MOLM14, drug alone, 2.25x IC50, 16 h): increased; also recorded: induced superoxide to greater levels than AS

Compound: CC(=O)N[C@@H](CS)C(=O)O [NAC]
IC50 ([1]; MOLM14, preliminary experiments): ~25000 µM

Compound: Cc1c[nH]c(-c2cnc(NCCNc3ccc(C#N)cn3)nc2-c2ccc(Cl)cc2Cl)n1 [CHIR-99021]
fractional inhibition over Bliss prediction [5, 12]: MOLM14 (0.53)
fractional inhibition over Bliss prediction [6, 13]: RCH-ACV (0.15)
No. Cell Lines [7]: 2/4

Compound: O=C(Nc1cccc(C(F)(F)F)c1)Nc1cc(S(=O)(=O)NC2CC2)ccc1-c1ccsc1 [AGI6780]
fractional inhibition over Bliss prediction [6, 15]: RCH-ACV (0.11)
No. Cell Lines [7]: 2/4**
fractional inhibition over Bliss prediction [8, 14]: KOPN8 (0.17),

fractional inhibition over Bliss prediction [5, 12]: 0.57 and 0.37
fractional inhibition over Bliss prediction [5, 16]: 0.30 and 0.27
fractional inhibition over Bliss prediction [6, 15]: RCH-ACV (0.14)
fractional inhibition over Bliss prediction [6, 13]: RCH-ACV (0.20)
fractional inhibition over Bliss prediction [8, 14]: 0.24 and 0.16
fractional inhibition over Bliss prediction [8, 17]: KOPN8 (0.18),
Compound: CCc1cc(Nc2nccc(-c3c(-c4ccc(OC)c(C(=O)Nc5c(F)cccc5F)c4)nc4ccccn34)n2)c(OC)cc1N1CCC(N2CCN(S(C)(=O)=O)CC2)CC1 [GSK-1904529A]
No. Cell Lines [7]: 3/4

Compound: O=c1ncn2nc(Sc3ccc(F)cc3F)ccc2c1-c1c(Cl)cccc1Cl [VX-745]
fractional inhibition over Bliss prediction [5, 16]: MOLM14 (0.11)
No. Cell Lines [7]: 2/4
fractional inhibition over Bliss prediction [8, 14]: KOPN8 (0.14)

Compound: C[C@]12O[C@H](C[C@]1(O)CO)n1c3ccccc3c3c4c(c5c6ccccc6n2c5c31)CNC4=O [LES, lestaurtinib]
IC50 [2, 11]: 0.003 µM
IC50 [3]: 0.045 µM
Combination index (CI), interaction [9]: 1.5

Compound: CC(=O)N(O)CCCCCNC(=O)CCC(=O)N(O)CCCCCNC(=O)CCC(=O)N(O)CCCCCN [DFO, deferoxamine mesylate]
IC50 ([1]; Homo sapiens, MOLM-14, 48 h): ~11 µM

Compound: Nc1ccn([C@@H]2O[C@H](CO)[C@@H](O)[C@@H]2O)c(=O)n1 [ARA, cytarabine]
tumor growth (tumor size on day 24) [10]: inhibited tumor growth substantially more than did either drug alone
IC50 [3]: 0.073 µM
effect on AS-induced superoxide generation [4]: further enhanced

fractional inhibition over Bliss prediction [5, 12]: MOLM14 (0.17),
fractional inhibition over Bliss prediction [5, 16]: MOLM14 (0.27),
fractional inhibition over Bliss prediction [8, 14]: KOPN8 (0.19)
fractional inhibition over Bliss prediction [8, 17]: KOPN8 (0.12)
Compound: Cn1cc(-c2ccc3nnc(C(F)(F)c4ccc5ncccc5c4)n3n2)cn1 [JNJ-38877605]
No. Cell Lines [7]: 2/4

Compound: Cc1[nH]c(/C=C2\C(=O)Nc3ccc(S(=O)(=O)N(C)c4cccc(Cl)c4)cc32)c(C)c1C(=O)N1CCN(C)CC1 [SU11274]
fractional inhibition over Bliss prediction [5, 12]: MOLM14 (0.17),
fractional inhibition over Bliss prediction [5, 16]: MOLM14 (0.28),
No. Cell Lines [7]: 2/4
fractional inhibition over Bliss prediction [8, 14]: KOPN8 (0.39)
fractional inhibition over Bliss prediction [8, 17]: KOPN8 (0.17)

fractional inhibition over Bliss prediction [5, 12]: MOLM14 (0.13),
fractional inhibition over Bliss prediction [5, 16]: MOLM14 (0.21)
fractional inhibition over Bliss prediction [8, 14]: KOPN8 (0.10)
Compound: O=S(=O)(NCCNC/C=C/c1ccc(Br)cc1)c1cccc2cnccc12 [H-89]
No. Cell Lines [7]: 2/4

Compound: CO[C@@H]1[C@H](N(C)C(=O)c2ccccc2)C[C@H]2O[C@]1(C)n1c3ccccc3c3c4c(c5c6ccccc6n2c5c31)C(=O)NC4 [MID, midostaurin]
IC50 [3]: 0.21 µM
